Assay results as given in PMC9102668, “Highly Cytotoxic Osmium(II) Compounds and Their Ruthenium(II) Analogues Targeting Ovarian Carcinoma Cell Lines and Evading Cisplatin Resistance Mechanisms” (International Journal of Molecular Sciences, 2022).

Key:
[1] = test system: Cisplatin resistant cell lines; experiment: Mean IC50 (MTT assay) on Cisplatin resistant cell lines; type: cell-based
Method: Thus, it can be concluded that the biological activity is mediated by a longer chain (butoxy) at the meta-position, whereas the ortho- and para-positions are more suitable with a shorter chain (ethoxy). To have a further look at the influence of the different ligand systems and substitution patterns, all β-Hydroxydithiocinnamic acid alkyl esters were tested under same conditions as their derived ruthenium(II) complexes (Figure 5B, Supplementary Table S3). […] All ligands are less cytotoxic than Cisplatin itself and therefore the metal(II) center is necessary for the high cytotoxic activity, what is in clear contrast to the literature for O,S-chelating ruthenium(II) or osmium(II) compounds with thiomaltol ligand [48, 71] but confirmed for Ru(II)/Os(II) compounds with N,N-bidentate glycosyl heterocyclic ligands. This is exemplarily shown by the comparison of mean IC50 values for Cisplatin, L14, and Ru14 (Supplementary Figure S8).
Ovarian cancer cell lines were cultured under standard conditions (5% CO2, 37 °C, 90% humidity) in RPMI medium supplemented with 10% FCS, 100 U/mL penicillin and 100 µg/mL streptomycin (Life Technologies, Dreieich, Germany). Cisplatin (Sigma, Taufkirchen, Germany) was freshly dissolved at 1 mg/mL in 0.9% NaCl solution and diluted appropriately. New ruthenium(II) complexes and ligands were dissolved in dmso. Platinum-resistant A2780 and SKOV3 cells were established by repeated rounds of 3-day incubations with increasing amounts of Cisplatin starting with 0.1 µM. The concentration was doubled after 3 incubations, interrupted by recovery phases with normal medium. […] Determinations of IC50 values were carried out using the CellTiter96 non-radioactive proliferation assay (MTT assay, Promega, Mannheim, Germany). After seeding 5000 cells per well in a 96-well plate, cells were allowed to attach for 24 h and were incubated for 48 h with different concentrations of the substances ranging from 0 to 500 µM for Ruthenium and 0 to 1000 µM for ligand tests (0, 1, 10, 50, 100, 500, 1000 µm), for Cisplatin from 0 to 100 µM (0.1, 1, 5, 10, 50, 100 µM). Each measurement was done in triplicate and repeated 3 times. The proportion of viable cells was quantified by the MTT assay and after background subtraction relative values compared to the mean of medium controls were calculated. Non-linear regression analyses applying the Hill slope were run in GraphPad 5.0 software.

histone γH2AX-foci = experiment: γH2AX foci analysis (DNA damage); type: cell-based; conditions: IC50 concentration, 24h incubation
Excerpt: ROS production may also lead to endoplasmatic reticulum stress-induced apoptosis. In general, many ruthenium(II) complexes with different ligands induce intracellular ROS [94, 95, 96, 97, 98, 99]. Moreover, the cytotoxic activity of Os(II) compounds can be inhibited by vitamin E co-treatment pointing to the contribution of ROS [88]. In addition to mitochondrial dysfunction, Ru(II) complexes may affect glycolysis or topoisomerase I/II, thus inducing necroptosis. Ru(II) compounds with modified pyrithione ligands were recently described to overcome platinum resistance in ovarian cancer cells by inducing cytostatic G1 arrest, TrxR inhibition, and cell membrane damage. […] Future studies may identify the specific target proteins enabling molecular docking studies and specific refinement of the organo-metal compound structure. Altogether, presented compounds may use some of these alternative modes of action as well, as we see efficient cell death but no cell cycle arrest induction by Ru3/Ru14. Furthermore, the ruthenium(II) core atom might be responsible for this effect because of the lack of anticancer behaviour of the ligand L14 (Supplementary Figure S8). To further confirm that Ru compounds use another mechanism of action, DNA damage analyses were conducted for Ru3 and Ru14 (Figure 8). […]

[(η^6-p-cymene)Ru(1-(3-ethoxyphenyl)-3-(methylthio)-3-thioxo-prop-1-en-1-olate-O,S)] [Ru14]
mean IC50 value on Cisplatin resistant cell lines compared with Cisplatin [1]: lower | γH2AX-foci induction (histone γH2AX-foci): less γH2AX-foci as Cisplatin
